Data on one compound can be found in ChEMBL document CHEMBL5579832, “Design, synthesis, and biological evaluation of pyrido[2,3-d]pyrimidin-7(8H)-one derivatives as potent USP1 inhibitors” (Eur J Med Chem, 2024).

Data set [1] relates to Olaparib-resistant MDA-MB-436. In words: Induction of cell cycle arrest in human Olaparib-resistant MDA-MB-436 cell assessed as increase in cells at S phase at 1 uM incubated for 24 hrs by PI staining based flow cytometry analysis. The class given is functional.
The target of data set [2] is T1, Ubiquitin carboxyl-terminal hydrolase 1/WD repeat-containing protein 48 (Homo sapiens) (UniProt O94782+Q8TAF3). In words: Inhibition of USP1/UAF1 in human Olaparib-resistant MDA-MB-436 cell assessed as increase in Ub-PCNA level at 20 nM incubated for 24 hrs by Western blot analysis. Type of data set: cell-based.
The test system of data set [3] is Olaparib-resistant MDA-MB-436. In words: Induction of cell cycle arrest in human Olaparib-resistant MDA-MB-436 cell assessed as accumulation of cells in S phase at 1 uM incubated for 24 hrs in the presence of olaparib by PI staining based flow cytometry analysis. Type of data set: functional.
The subject of data set [4] is Olaparib-resistant MDA-MB-436. As to the kind of experiment: Induction of cell cycle arrest in human Olaparib-resistant MDA-MB-436 cell assessed as accumulation of cells in G2/M phase at 1 uM incubated for 24 hrs in the presence of olaparib by PI staining based flow cytometry analysis. Type of data set: functional.
Data set [5] concerns the target T1, Ubiquitin carboxyl-terminal hydrolase 1/WD repeat-containing protein 48 (Homo sapiens). As to the kind of experiment: Inhibition of USP1/UAF1 in human NCI-H1299 cells assessed as increase in Ub-PCNA levels at 20 nM incubated for 24 hrs by Western blot analysis. The class given is cell-based.
The nature of data set [6]: Cmax in male ICR mouse at 10 mg/kg, po administered as single dose and measured after 24 hrs. The class given is ADME, organism-based. Conditions: in vivo.
The subject of data set [7] is Olaparib-resistant MDA-MB-436. In words: Inhibition of colony formation in human Olaparib-resistant MDA-MB-436 cell at 100 nM measured after 7 days by SRB staining based assay relative to control. Particulars: Olaparib-resistant MDA-MB-436, 168 h, time 7 day. Type of data set: functional.
Data set [8] addresses T1, Ubiquitin carboxyl-terminal hydrolase 1/WD repeat-containing protein 48 (Homo sapiens). Particulars: NCI-H1299, dose 20-500 nM, time 24.0 hrs.
The target in data set [9] is Ubiquitin carboxyl-terminal hydrolase 9X (Homo sapiens) (UniProt Q93008). As to the kind of experiment: Inhibition of USP9X (unknown origin) using diubiquitin as a substrate at 0 to 10 uM preincubated for 15 mins followed by substrate addition and measured after 2 hrs by SDS-PAGE analysis. Particulars: dose 0-10 µM, time 135.0 min.
The target of data set [10] is T2, Ubiquitin carboxyl-terminal hydrolase 15 (Homo sapiens) (UniProt Q9Y4E8).
T2 sequence (whole entry): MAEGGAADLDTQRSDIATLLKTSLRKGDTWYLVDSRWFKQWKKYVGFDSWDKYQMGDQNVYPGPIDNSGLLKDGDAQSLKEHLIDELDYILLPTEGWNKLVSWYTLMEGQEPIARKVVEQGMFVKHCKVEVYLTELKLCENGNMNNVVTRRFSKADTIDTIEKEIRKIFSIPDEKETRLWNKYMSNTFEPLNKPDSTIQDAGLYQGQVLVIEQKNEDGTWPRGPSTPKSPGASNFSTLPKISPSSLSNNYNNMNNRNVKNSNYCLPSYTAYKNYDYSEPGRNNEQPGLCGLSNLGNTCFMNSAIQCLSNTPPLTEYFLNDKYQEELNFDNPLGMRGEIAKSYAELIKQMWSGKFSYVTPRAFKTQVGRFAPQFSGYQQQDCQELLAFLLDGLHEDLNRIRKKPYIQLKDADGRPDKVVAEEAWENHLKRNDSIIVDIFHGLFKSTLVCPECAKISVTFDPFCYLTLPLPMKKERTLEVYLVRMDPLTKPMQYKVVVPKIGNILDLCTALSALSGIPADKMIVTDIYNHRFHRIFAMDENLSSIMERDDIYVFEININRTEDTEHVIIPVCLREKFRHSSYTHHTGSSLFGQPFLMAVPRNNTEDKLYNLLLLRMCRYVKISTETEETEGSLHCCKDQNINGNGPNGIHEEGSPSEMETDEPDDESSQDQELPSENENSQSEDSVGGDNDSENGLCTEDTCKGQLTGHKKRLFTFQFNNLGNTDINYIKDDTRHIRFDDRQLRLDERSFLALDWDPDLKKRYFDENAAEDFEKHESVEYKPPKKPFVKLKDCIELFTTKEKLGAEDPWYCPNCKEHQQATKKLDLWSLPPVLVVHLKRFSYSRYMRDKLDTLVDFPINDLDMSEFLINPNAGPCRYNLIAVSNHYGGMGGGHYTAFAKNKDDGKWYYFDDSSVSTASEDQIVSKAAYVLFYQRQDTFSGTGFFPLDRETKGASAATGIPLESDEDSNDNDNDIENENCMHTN
In words: Inhibition of recombinant human 6His-tagged USP15 using diubiquitin as a substrate at 0 to 10 uM preincubated for 15 mins followed by substrate addition and measured after 2 hrs by SDS-PAGE analysis. Conditions: dose 0-10 µM, time 135.0 min.

Active and inactive are the calls of the source. The calls are words filed in the database; no cut-off is given here.

Ubiquitin carboxyl-terminal hydrolase 9X (Homo sapiens), sequence (Q93008 whole entry): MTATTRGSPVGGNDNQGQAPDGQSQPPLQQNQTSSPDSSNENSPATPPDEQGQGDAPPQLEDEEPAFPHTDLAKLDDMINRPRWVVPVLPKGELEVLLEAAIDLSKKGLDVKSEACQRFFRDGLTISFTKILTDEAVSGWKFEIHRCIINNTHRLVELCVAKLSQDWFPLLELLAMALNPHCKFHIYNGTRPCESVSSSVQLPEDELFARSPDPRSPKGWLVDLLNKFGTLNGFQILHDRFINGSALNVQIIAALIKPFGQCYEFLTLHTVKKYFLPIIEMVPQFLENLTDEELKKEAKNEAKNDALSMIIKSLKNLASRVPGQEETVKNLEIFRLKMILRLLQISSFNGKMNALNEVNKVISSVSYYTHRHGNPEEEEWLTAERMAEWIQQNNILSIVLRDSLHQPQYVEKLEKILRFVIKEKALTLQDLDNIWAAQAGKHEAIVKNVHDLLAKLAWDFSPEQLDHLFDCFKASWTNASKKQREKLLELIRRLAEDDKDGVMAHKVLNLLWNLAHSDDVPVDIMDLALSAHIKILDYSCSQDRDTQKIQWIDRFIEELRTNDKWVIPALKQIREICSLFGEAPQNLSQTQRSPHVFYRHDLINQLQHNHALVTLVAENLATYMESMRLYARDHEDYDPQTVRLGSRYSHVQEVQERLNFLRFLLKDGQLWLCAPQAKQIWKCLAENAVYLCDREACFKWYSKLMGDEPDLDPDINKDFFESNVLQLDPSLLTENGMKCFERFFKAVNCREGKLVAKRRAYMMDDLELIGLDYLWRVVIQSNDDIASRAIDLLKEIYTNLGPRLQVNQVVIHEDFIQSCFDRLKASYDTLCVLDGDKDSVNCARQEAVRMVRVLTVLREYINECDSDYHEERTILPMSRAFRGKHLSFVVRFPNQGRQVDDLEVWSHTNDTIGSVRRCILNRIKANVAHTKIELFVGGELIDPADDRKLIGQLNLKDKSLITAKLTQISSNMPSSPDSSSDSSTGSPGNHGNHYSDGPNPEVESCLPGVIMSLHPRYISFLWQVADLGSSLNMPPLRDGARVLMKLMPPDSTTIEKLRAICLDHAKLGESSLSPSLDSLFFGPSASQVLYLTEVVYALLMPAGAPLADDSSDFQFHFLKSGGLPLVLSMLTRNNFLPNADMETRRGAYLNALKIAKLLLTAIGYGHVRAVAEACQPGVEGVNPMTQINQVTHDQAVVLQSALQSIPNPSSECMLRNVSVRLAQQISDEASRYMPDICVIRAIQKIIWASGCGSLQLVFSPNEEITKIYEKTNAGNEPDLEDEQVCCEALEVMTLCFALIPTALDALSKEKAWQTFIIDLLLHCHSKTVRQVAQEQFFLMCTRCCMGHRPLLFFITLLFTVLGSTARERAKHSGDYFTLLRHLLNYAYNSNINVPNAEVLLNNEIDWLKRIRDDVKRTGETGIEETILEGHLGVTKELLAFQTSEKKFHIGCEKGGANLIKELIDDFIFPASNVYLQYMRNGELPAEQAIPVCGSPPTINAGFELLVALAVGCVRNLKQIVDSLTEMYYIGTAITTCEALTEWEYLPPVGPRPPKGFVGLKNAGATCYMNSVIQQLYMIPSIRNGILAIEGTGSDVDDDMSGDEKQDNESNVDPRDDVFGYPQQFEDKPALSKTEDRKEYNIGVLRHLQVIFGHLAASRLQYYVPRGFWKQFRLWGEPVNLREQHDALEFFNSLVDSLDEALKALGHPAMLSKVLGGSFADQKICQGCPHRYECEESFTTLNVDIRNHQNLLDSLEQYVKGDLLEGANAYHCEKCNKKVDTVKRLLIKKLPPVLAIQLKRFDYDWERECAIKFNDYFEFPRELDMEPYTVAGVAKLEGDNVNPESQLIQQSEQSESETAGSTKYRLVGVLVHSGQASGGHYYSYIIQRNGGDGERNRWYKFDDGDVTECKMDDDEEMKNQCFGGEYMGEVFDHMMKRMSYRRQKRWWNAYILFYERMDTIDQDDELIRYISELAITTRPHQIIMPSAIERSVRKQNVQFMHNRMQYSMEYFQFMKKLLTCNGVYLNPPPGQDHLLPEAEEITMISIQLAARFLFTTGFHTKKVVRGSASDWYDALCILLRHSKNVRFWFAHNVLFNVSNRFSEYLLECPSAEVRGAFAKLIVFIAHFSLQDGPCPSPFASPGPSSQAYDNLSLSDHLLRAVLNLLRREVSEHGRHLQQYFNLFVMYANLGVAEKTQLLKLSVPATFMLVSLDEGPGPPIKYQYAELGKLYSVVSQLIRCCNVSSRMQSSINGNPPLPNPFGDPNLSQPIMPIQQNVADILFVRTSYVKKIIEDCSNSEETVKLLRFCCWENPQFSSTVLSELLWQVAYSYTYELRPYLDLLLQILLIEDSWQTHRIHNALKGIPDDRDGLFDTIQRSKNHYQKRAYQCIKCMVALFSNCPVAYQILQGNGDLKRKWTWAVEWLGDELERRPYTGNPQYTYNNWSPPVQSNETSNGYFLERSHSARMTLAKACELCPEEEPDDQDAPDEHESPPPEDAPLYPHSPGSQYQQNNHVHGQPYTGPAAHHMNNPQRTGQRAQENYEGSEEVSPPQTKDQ

For the compound `COc1ncnc(C2CC2)c1-c1ncc2ccc(=O)n(Cc3ccc(-c4nc(C(F)(F)F)cn4C(C)C)cc3)c2n1`, the result in [1], in [3], in data set [4] and in data set [5] was Active. Also, the inhibition result in data set [2] was “Active”. The compound also gave a Cmax in [6] of 4780 ng/mL. Moreover, testing at 0.1 µM in data set [7] gave an inhibition of 30%. For the same compound, in [8], the inhibition entry is “Dose-Dependent Effect”. The inhibition entry in data set [9] and in [10] was “inactive” throughout.
